Results: patent US20240165047A1, “Use Of Honokiol In Preparation Of Drug For Treating Meningioma” (Chengdu Jinrui Foundation Biotech Co., Ltd., priority 2021, published 2024)

What was measured:
[1] = Phase I clinical trial of clinical safety and tolerance of honokiol liposome for injection, safety analysis set (patients with advanced malignant solid tumors); format: in vivo, human; conditions: summary statement of the clinical trials
Source text: (§1) Description of the Subject: • person; • on Jan. […] 27, 2018, the subject underwent the resection of a deep skull bottom lesion, endothelial meningoma, and local lesion being hemangioma-type meningoma, accompanied by bleeding, showing the non-typical meningioma, infiltrating bone tissue, comprehensive to malignant meningoma; immunohistochemistry: EMA (positive), PR (scattered in a little positive), SSTR (focal positive), CD34 (blood vessel positive), CD99 (+), S100 (-), Syn (-), CgA (-), CK (occasionally positive), Ki67 (about 8-20%); • in February 2019, the subject was treated for intracranial infection; • in June 2019, the subject received whole brain radiotherapy; • on Mar. 5, 2021, the subject re-examined the cranial MR and the tumor recurred; in order to further treat, at the outpatient of Beijing […] […]

[2] = test system: meningioma; assay: Phase I clinical trial of honokiol liposome for injection: cranial MR re-examination of meningioma patients, RANO standard; format: in vivo, human; conditions: summary statement of the clinical trials
Source text: as §1

Compound: C=CCc1ccc(O)c(-c2ccc(O)c(CC=C)c2)c1 [honokiol, 3′,5-di-2-propenyl-1,1′-biphenyl-2,4′-diphenol]
- overall safety and tolerance in clinical trials [1]: good safety and tolerance
- overall efficacy against meningioma in clinical trials [2]: effectively treat the meningioma
